Measurements taken from patent US12600997B2, “Fermentative production of sialylated saccharides” (priority 2018, dated 2026).

Assays:
[1] = tested on: SiaT18 (α-2,6-sialyltransferase); assay: In vitro sialyltransferase activity assay with acceptor substrates, product detected by thin layer chromatography; type: biochemical, Photobacterium leiognathi JT-SHIZ-119; parameters: key to Formation of sialylated reaction product, SiaT18: +: A sialylated reaction product was detectable.; −: A sialylated reaction product was not detectable; conditions: TLC; for Formation of sialylated reaction product, SiaT18: E. coli protein extract, 10 mM CMP-Neu5Ac, 5 to 20 mM acceptor substrate, 16 hours; for Sialylation of acceptor substrate by SiaT18: in vitro assay, summary of Table 3
Description: (§1) The E. coli strains harboring the plasmids for siaT9 (α-2,3-sialyltransferase) and siaT18 (α-2,6-sialyltransferase) expression were grown at 30° C. in 100 ml shake flasks filled with 20 ml of 2YT medium supplemented with ampicillin 100 μg ml^−1. When the cultures reached an OD600 of 0.1 to 0.3, gene expression was induced by addition of 0.3 mM IPTG and the incubation was continued for 12 to 16 hours. Cells were harvested by centrifugation and mechanically disrupted in a defined volume of 50 mM Tris-HCl pH7.5 using glass beads. The protein extract was kept on ice until the assay started. The in vitro assay was carried out in a total volume of 25 μl including 50 mM Tris-HCl PH7.5, 5 mM MgCl2, 10 mM CMP-Neu5Ac and 5 to 20 mM of the appropriate acceptor substrates. The assay started with the addition of 3 μl protein extract and continued for 16 hours. Formation of sialylated oligosaccharides resulting from the activity of the sialyltransferases was determined by thin layer chromatography.
(§2) Therefore, samples were applied on Silica Gel 60 F254 (Merck KGaA, Darmstadt, Germany)-plates. A mixture of butanol:acetone:acetic acid:H2O (35/35/7/23 (v/v/v/v)) was used as mobile phase. For detection of the separated substances, the TLC plate was soaked with thymol reagent (0.5 g thymol solved in 95 ml ethanol, 5 ml sulfuric acid added) and heated. Sialylated reaction products run slower than their acceptor substrates.
(§3) Table 3: In vitro analyses determining sialyltransferase activities of two exemplary sialyltransferases depending on the supplied acceptor substrate. The formation of sialylated saccharides was determined by thin layer chromatography. (+) A sialylated reaction product was detectable. (−) A sialylated reaction product was not detectable.

[2] = tested on: SiaT9 (α-2,3-sialyltransferase); assay: as above; type: biochemical, Vibrio sp. JT-FAJ-16; parameters: key to Formation of sialylated reaction product, SiaT9: +: A sialylated reaction product was detectable.; −: A sialylated reaction product was not detectable; conditions: TLC; for Formation of sialylated reaction product, SiaT9: E. coli protein extract, 10 mM CMP-Neu5Ac, 5 to 20 mM acceptor substrate, 16 hours; for Sialylation of acceptor substrate by SiaT9: in vitro assay, summary of Table 3
Description: as §1, §2, §3

Row | Structure (SMILES) | Formation of sialylated reaction product, SiaT18 [1] | Sialylation of acceptor substrate by SiaT18 [1] | Formation of sialylated reaction product, SiaT9 [2] | Sialylation of acceptor substrate by SiaT9 [2]
1 | O=C[C@H](O)[C@@H](O)[C@@H](O)[C@H](O)CO [Galactose] | + | capable to sialylate | + | capable to sialylate
2 | CC(=O)N[C@H]1[C@H](O[C@H]2[C@@H](O)[C@@H](CO)O[C@@H](O[C@H]3[C@H](O)[C@@H](O)C(O)O[C@@H]3CO)[C@@H]2O)O[C@H](CO)[C@@H](O)[C@@H]1O[C@@H]1O[C@H](CO)[C@H](O)[C@H](O)[C@H]1O (stereo partly drawn) [Lacto-N-tetraose] | + |  | + | 
3 | OC[C@H]1O[C@@H](O[C@H]2[C@H](O)[C@@H](O)C(O)O[C@@H]2CO)[C@H](O)[C@@H](O)[C@H]1O (stereo partly drawn) [Lactose] | + |  | + | 
4 | OC[C@H]1O[C@@](CO)(O[C@H]2O[C@H](CO)[C@@H](O)[C@H](O)[C@H]2O)[C@@H](O)[C@@H]1O [Sucrose] | − | No sialylated oligosaccharide was detectable | − | No sialylated oligosaccharide was detectable
